Holding throughout (type): in vivo, C57BL/6 mouse
What all share (conditions): 15 mg/kg orally for 14 days, foot pad electric shock and restraint stress, cerebral cortex obtained on Day 17

Test [1] relates to neuropeptide Y mRNA. Nature of the test: mRNA expression level of neuropeptide Y in cerebral cortex, stress-induced sleep disturbance model (real-time PCR). As to the method:
(§1) 100 mg/kg extract of Fraxinus rhynchophylla and 15 mg/kg doxepin (Sigma-Aldrich, St. Louis, Mo., USA) were dissolved respectively in PBS to the designated concentration. After aliquoting them according to the required administration amount, it was orally administered in an amount of 0.1 ml for each, one hour before applying stress. To the normal and stress control, PBS was orally administered in an amount of 0.1 ml for each.
(§2) Seven-week old male C57BL/6 mouse with bodyweight of 20 to 22 g was obtained from DBL Co., Ltd. (Eumseong-Gun, Chungcheong-Bukdo, Korea). […]
(§3) Expression pattern of the gene in cerebral cortex, which has been removed from each test animal upon the completion of the test, was determined by real-time PCR. The cerebral cortex tissues of a mouse were treated with RNAzolB (Tel-Test) to extract RNA, and then analyzed by cDNA and real-time PCR instrument using One-step SYBR Green PCR kit (AB science). […] Real time quantitative PCR was carried out by using Applied Biosystems 7500 Real-Time PCR system (Applied Biosystems, USA).
Thereafter, foot pad electric shock and restrain were applied to the mouse and then cerebral cortex was collected by autopsy of the mouse to obtain RNA. cDNA was then prepared and mRNA expression of neuropeptide Y was analyzed by using real-time gene analyzer.

Test [2] deals with GAD65 (glutamic acid decarboxylase 65) mRNA. Nature of the test: mRNA expression level of GAD65 in cerebral cortex, stress-induced sleep disturbance model (real-time PCR). On the procedure: as §1, §2, §3
(§4) Thereafter, foot pad electric shock and restrain were applied to the mouse and then cerebral cortex was collected by autopsy of the mouse to obtain RNA. cDNA was then prepared and mRNA expression level of GAD65 and GAD67 was analyzed by using real-time gene analyzer.
For orientation: Real-time PCR tracks product formation cycle by cycle.

Test [3] relates to GAD67 (glutamic acid decarboxylase 67) mRNA. Nature of the test: mRNA expression level of GAD67 in cerebral cortex, stress-induced sleep disturbance model (real-time PCR). On the procedure:
as §1, §2, §3, §4

Consider `CN(C)CCC=C1c2ccccc2COc2ccccc21` [doxepin], for which the “mRNA expression level of neuropeptide Y in cerebral cortex compared to the control” value was “increased in statistically significant sense” in test [1] and “higher expression in significant sense” in test [1] (listed as positive control). Further, in test [2], the “mRNA expression level of GAD65 in cerebral cortex compared to the control” value is recorded as “tend to show higher expression”. In addition, the “mRNA expression level of GAD67 in cerebral cortex compared to the control” value in test [3] is “tend to show higher expression”.

Values taken from US20210338761A1, “COMPOSITION FOR PREVENTING, AMELIORATING, OR TREATING SLEEP DISTURBANCE COMPRISING EXTRACT OF FRAXINUS SP. PLANT AS EFFECTIVE COMPONENT” (KOREA INSTITUTE OF ORIENTAL MEDICINE, priority 2018, published 2021).
